Here are results for 1 molecule from publication PMC6383986, “Fragment-Based Covalent Ligand Screening Enables Rapid Discovery of Inhibitors for the RBR E3 Ubiquitin Ligase HOIP” (Journal of the American Chemical Society, 2019).

For series [1], the system named is E1, UbcH5c, UbcH7, HOIL-1L, RNF144A, HHARI, TRIAD3A RBR domains, NEDD4L, E6AP, OTULIN, CYLD-1. In words: LC-MS-based enzyme counter screen. It is filed as binding. The settings on record: 2-fold excess, positive control. The method, then:
0.1% formic acid in water. The samples were analyzed on a Q Exactive MS (Thermo Fisher) coupled to an Easy-nLC chromatographic system (Thermo Fisher) with a nano ESI source (Thermo Fisher). Each sample (2 µL) was injected and trapped on a C18 Acclaim pepMap 100 enrichment column (75 µm id × 2 cm, 3 µm nanoviper, Thermo Fisher). The samples were transferred to a C18 Acclaim PepMap RSLC analytical column (75 µm id × 15 cm, 2 µm, Thermo Fisher) at 300 nL/min. Mobile phase A (0.1% Formic acid in water, v/v); mobile phase B (0.1% […]
min (70-95% B), 56-61 min (95% B). The nanospray ionisation source was operated in the positive mode with spray voltage set at 2 kV, and heated capillary at 250 °C. The Q Exactive was operated in the data dependent mode and the top 15 most intense ions were subjected to HCD fragmentation with normalised collision energy set at 26%. The MS1 scans were performed at a resolution of 70 000 from 400-1600 m/z, automatic gain control (AGC) value 3 e6, maximum injection time 100 ms. […]
Compounds (1) and (5) were screened against E1, the E2s UbcH5c and UbcH7, the RBR domains of the E3 ligases HOIP, HOIL-1L, RNF144A, HHARI and TRIAD3A, the HECT E3 ligases NEDD4L and E6AP, and the DUBs OTULIN and CYLD-1. […] The samples were analyzed after 0.5 and 24 h incubation. […]

Series [2] deals with untransfected HEK293T cells. In words: CellTiter-Glo Luminescent cell viability assay, untransfected cells. It is filed as cell-based. As to conditions: 17 h. The method, then:
Separately, untransfected HEK293T cells were incubated with compounds (1), (11a) and (17) for 17 h, and the cell viability determined using the CellTiter-Glo® Luminescent Cell Viability Assay as described above. Average data from three independent experiments each done in triplicate were plotted as percentage cell viability normalized to DMSO control with GraFit (v.7) against different compound concentrations and fitted using the IC50-4 parameter logistic (Supplementary […]
Supplementary Figure S14. A-D) Uncropped concentration-response graphs (A and D from Figure 6D) and Western blots from the NF-κB reporter and cell viability assays. HEK293T cells transfected with His6-tagged HOIP, HOIL-1L and SHARPIN (H/H/S) were treated with compounds (11a) and (17) for 17 h and the relative NF-κB activity and cell viability was plotted against compound concentration. E) Cell viability of untransfected HEK293T cells treated with compound (1), (11a) and (17) for 17 h. The observed cell toxicity for compound (1) was in line that previously […]
(1 picture or pasted object on this page, not shown here)

The structures appear in SMILES notation.

For the molecule `Cc1ccc(S(=O)(=O)/C=C/C#N)cc1` [Compound 1, BAY 11–7082, reference compound], in series [1], the “labeling of counter screen proteins” value is “rapid and extensive labeling for most proteins”. In addition, in series [2], the cell viability result is on record as “cell toxicity”.
